Data as given in publication PMC10449631 (Nature Chemical Biology, 2023).
Several values for one entry are separate records, joined by “and”; a condition that tells them apart may be missing. Identical values can stand only once. No end group written: not given here.

Biological target: T1, PaAP_T (P. aeruginosa aminopeptidase, C-terminal truncated) (Pseudomonas aeruginosa, UniProt Q02PA2)
T1 construct: PaAP (WT, residues 27–536); His6 (TEV cleavable) (N, cleaved yes); made in house; host or cells: E. coli SHuffle T7
Experiment: Inhibition of PaAP_T in the Leu-pNA aminopeptidase assay (KI, IC50)
Assay type: biochemical
Details: for IC50 plot data (PaAP_T activity at given peptide concentration): (S) = 2 mM, PaAP 100 nM, listed as ERWGHDFIK (linear)

T1 sequence (Q02PA2 37-516, looked up, natural form): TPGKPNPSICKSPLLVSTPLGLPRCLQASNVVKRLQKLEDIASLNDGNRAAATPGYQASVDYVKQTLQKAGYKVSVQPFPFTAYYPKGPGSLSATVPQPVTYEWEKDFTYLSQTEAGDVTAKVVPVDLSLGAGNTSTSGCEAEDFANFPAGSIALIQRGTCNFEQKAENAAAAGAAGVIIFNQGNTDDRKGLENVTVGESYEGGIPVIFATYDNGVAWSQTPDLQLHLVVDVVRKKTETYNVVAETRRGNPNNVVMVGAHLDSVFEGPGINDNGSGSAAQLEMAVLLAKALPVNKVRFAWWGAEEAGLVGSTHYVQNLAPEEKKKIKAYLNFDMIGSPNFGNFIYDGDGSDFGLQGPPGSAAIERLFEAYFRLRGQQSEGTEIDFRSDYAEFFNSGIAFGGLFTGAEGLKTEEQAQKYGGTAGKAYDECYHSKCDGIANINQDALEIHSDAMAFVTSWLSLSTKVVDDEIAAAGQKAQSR

In the case of ERWGHDFIK [linear-ERWGHDFIK], the Ki is reported as 9.98 µM, the Slope (inhibitor 1 μM, [S] 0.125 mM) is reported as 21.4683 and 20.3052 and 17.979 and the Slope (inhibitor 1 μM, [S] 0.25 mM) is reported as 41.2291 and 37.1458 and 30.365. For the same sequence, the Slope (inhibitor 1 μM, [S] 0.5 mM) was 67.9068 and 67.7954 and 67.0654, the Slope (inhibitor 1 μM, [S] 1 mM) was 121.633 and 131.285 and 109.532 and the Slope (inhibitor 1 μM, [S] 2 mM) was 200.701 and 204.537 and 171.128. The Slope (inhibitor 1 μM, [S] 4 mM) was 291.524 and 268.014 and 241.411, the Slope (inhibitor 5 μM, [S] 0.125 mM) was 9.581 and 8.778 and 8.696 and the Slope (inhibitor 5 μM, [S] 0.25 mM) was 32.4809 and 31.8746 and 26.7767. For the same sequence, the Slope (inhibitor 5 μM, [S] 0.5 mM) was 59.2205 and 59.9629 and 55.5826, the Slope (inhibitor 5 μM, [S] 1 mM) was 96.3415 and 104.397 and 108.74 and the Slope (inhibitor 5 μM, [S] 2 mM) was 181.646 and 174.716 and 170.509. The Slope (inhibitor 5 μM, [S] 4 mM) was 244.875 and 240.668 and 225.201, the Slope (inhibitor 10 μM, [S] 0.125 mM) was 20.5527 and 17.7562 and 12.5469 and the Slope (inhibitor 10 μM, [S] 0.25 mM) was 41.2291 and 35.2155 and 27.5686. The Slope (inhibitor 10 μM, [S] 0.5 mM) was 78.3873 and 67.5108 and 53.8255, the Slope (inhibitor 10 μM, [S] 1 mM) was 125.469 and 113.021 and 101.823 and the Slope (inhibitor 10 μM, [S] 2 mM) was 183.502 and 182.636 and 149.35. For the same sequence, the Slope (inhibitor 10 μM, [S] 4 mM) was 242.153 and 233.244 and 209.115, the Slope (inhibitor 25 μM, [S] 0.125 mM) was 6.59 and 5.065 and the Slope (inhibitor 25 μM, [S] 0.25 mM) was 13.4378 and 10.2466 and 12.344. For the same sequence, the Slope (inhibitor 25 μM, [S] 0.5 mM) was 24.5618 and 19.0802 and 21.3817, the Slope (inhibitor 25 μM, [S] 1 mM) was 49.4576 and 37.8759 and 44.6938 and the Slope (inhibitor 25 μM, [S] 2 mM) was 81.2827 and 58.2058 and 83.8441. For the same sequence, the Slope (inhibitor 25 μM, [S] 4 mM) was 157.641 and 123.551 and 157.764, the Slope (inhibitor 50 μM, [S] 0.25 mM) was 11.9777 and 10.1576 and 8.79 and the Slope (inhibitor 50 μM, [S] 0.5 mM) was 21.0971 and 19.6494 and 15.7888. For the same sequence, the Slope (inhibitor 50 μM, [S] 2 mM) was 58.0945 and 62.2891 and 43.8276, the Slope (inhibitor 50 μM, [S] 4 mM) was 81.3941 and 82.5449 and 61.3735 and the Slope (inhibitor 100 μM, [S] 0.125 mM) was 4.015 and 2.528. For the same sequence, the Slope (inhibitor 100 μM, [S] 0.25 mM) was 7.23 and 6.8674 and 5.4469, the Slope (inhibitor 100 μM, [S] 0.5 mM) was 11.4246 and 12.4479 and 9.504 and the Slope (inhibitor 100 μM, [S] 1 mM) was 22.1736 and 23.0274 and 17.6325. For the same sequence, the Slope (inhibitor 100 μM, [S] 2 mM) was 38.6801 and 37.22 and 41.7859, the Slope (inhibitor 100 μM, [S] 4 mM) was 61.8313 and 63.972 and 50.5094 and the “IC50 plot data (PaAP_T activity at given peptide concentration)” value (“IC50 plot data” below) (log(I) 0) was 90.0485 and 96.6538 and 93.9669. For the same sequence, the “IC50 plot data” value (log(I) 0.39794) was 67.4338 and 85.0852 and 79.5995, the “IC50 plot data” value (log(I) 0.69897) was 45.9385 and 56.7981 and 56.8354 and the “IC50 plot data” value (log(I) 1) was 21.9729 and 26.522 and 23.891. The “IC50 plot data” value (log(I) 1.39794) was 12.1508 and 12.1918 and 12.9158, the “IC50 plot data” value (log(I) 1.69897) was 10.3856 and 11.9269 and 11.4231 and the “IC50 plot data” value (log(I) 2) was 9.945 and 11.4156 and 11.076. The “IC50 plot data” value (log(I) -0.30103) was 92.6981 and 112.924 and 94.3774.
